The numbers were not newly measured in US6555530B1, “Use of estrogens and delta-gonadien-21-Ol-3,20-diones for treating insulin dependent and non-insulin dependent diabetes” (Novo Nordisk A/S, priority 1999, dated 2003), which cites them from elsewhere.

Series [1] has as its system intact or ovarectomized female rats. Particulars: correlated to morphological changes in muscle.
The subject of series [2] is streptozotocin diabetic rats. The conditions noted are these: implanted testosterone.

As for `C[C@]12CC[C@H]3[C@@H](CCC4=CC(=O)CC[C@@]43C)[C@@H]1CC[C@@H]2O` [Testosterone], the insulin resistance result in series [1] is given as “marked insulin resistance”. Besides, the “glycemic control by residual insulin” value in series [2] is recorded as “antagonized the ability of residual insulin to maintain glycemic control”.
